Measured values published in US20210038547A1, “NEW USES AND APPLICATIONS OF DICARBOXYLIC ACIDS” (JEMYLL LIMITED, priority 2017, published 2021).

Legend:
[1] = system: oat; test: Hydroponic oat grown with C12 in the water medium: grain composition; details: 10 g C12/L of water (10% C12)
Experimental: (§1) Hydroponic barley and oat grass was growth in fodder sprouting chambers at 21.5 to 23.5° C., with humidity of 65±5% and water temperature between 20° and 22° C. Grains were soaked in water until fully saturated, then drained and placed in trays or troughs, to facilitate sprouting, for 5 to 8 days. The grains were kept moist during this period. Grains were initially washed with a sterilizing solution to help minimize the risk of mold. Grass were provided with […] from day 3. C12 (0.1% as acid, 14.9% as potassium salt, 60% as sodium salt, and 25% as calcium salt) was added to the water medium in different concentrations, varying from 0%, to 2.5%, 5%, 10%, 15% and 20%. We measured grain composition at 10 g C12 in 1 L of water.

[2] = system: Hy-Line Brown laying hens; test: Laying hens fed a standard diet or a diet enriched with C12 (10%): egg productivity, egg quality, yolk cholesterol; assay type: in vivo
Excerpt: Thirty Hy-Line Brown laying hens, 18 weeks of age, were free range-raised under natural light and dark cycle. The hens were divided into 2 groups and housed in different indoor pens (0.15 m^2/bird) equipped with feeders and drinkers, with access to open air runs (3 m^2/bird).
The diets were based on wheat and soybean meal with added dodecanedioic acid (C12) at 10% in the DAs diet, while they were free of dodecanedioic acid in the control diet. The diets were isocaloric and isonitrogenous containing 17.0% of crude protein (CP) and 2,680 kcal of metabolizable energy/kg of diet, in fact they were designed to meet or exceed the nutrient requirements for laying hens. The experimental diet was fed to the animals for 12 weeks. Feed and water were provided ad libitum throughout the entire trial.
Hens mortality or morbidity were recorded if occurred. Eggs were collected daily and egg production was calculated on per hen and per day basis. Eggs with any adhering manure were classified as dirty, and the percentage was then calculated.
Eggs were analyzed for interior and exterior physical quality, and were also examined for shell quality by specific gravity. Shell thickness (with shell membrane) of the eggs (10% of the daily egg produced) was measured by micrometer. Shell thickness was a mean value of measurements at 3 locations on the eggs (air cell; equator; and, sharp end). The breaking strength of untracked eggs was determined with a testing machine (model 1140, Instron Ltd., Bucks, UK). Egg components (albumen; yolk; and, shell) were measured by weekly breakouts on two eggs per replicate pen and expressed as percentage of egg weight.
Egg yolk color was scored using the 15-point scale (color scale from 15, dark orange to 1, light pale) of the DSM yolk color fan (DSM Nutritional Products Ltd., Basel, Switzerland).
The yolk cholesterol concentrations were determined by sampling weekly egg yolks (1 g) saponified with 20 ml of 33% ethanolic KOH in tightly-capped tubes placed in a 60° C. water bath for 1 hour. The mixture was then cooled in ice water, and 5 ml of distilled water was added. Cholesterol in unsaponifiable fractions was extracted twice with 5 ml of hexane. The resulting aliquot of hexane containing cholesterol was dried under nitrogen, re-dissolved in 5 ml of hexane, and injected into a gas chromatograph (Hewlett Packard, Palo Alto, Calif., Palo Alto, Calif., USA).
5 α-cholestane (Sigma-Aldrich) was used as an internal standard. A split inlet (using a split ratio of 100:1) was used to inject samples into a capillary column (HP-5, Agilent, Steven, Calif., USA; 30 m×0.53 mm×0.5 μm). Temperature conditions were as follows: […] oven temperature of 270° C. isothermal; detector temperature of 300° C.; and, inlet temperature of 210° C. The gas carrier was N2 kept at a constant flow rate of 1.0 ml/min.
Data were analyzed using the statistical package SPSS 13. Comparisons were made by the Mann Whitney U test since data were not normally distributed.

[3] = system: barley; test: Hydroponic barley grown with C12 in the water medium: grain composition; details: 10 g C12/L of water (10% C12)
Experimental: as §1

## O=C(O)CCCCCCCCCCC(=O)O [C12, dodecanedioic acid]
[1]
  Ash %: 4.06 ± 0.59%
  Crude Fibre %: 23.40 ± 4.04%
  Crude Protein %: 18.70 ± 2.28%
  Dry matter (%): 90.00 ± 5.70%
  Starch %: 31.80 ± 8.11%
[2]; 10% C12 enriched diet vs standard diet
  Yolk color: lighter color of the yolk
[2]; 12 weeks of feeding
  Hen mortality or morbidity: No hen mortality or morbidity was observed
[2]; diet with 10% C12 for 12 weeks
  Dirty eggs (%): 0.38 ± 0.14%
  Egg mass (g/hen per day): 54.56 ± 5.66 g/hen per day
  Egg-laying rate (%): 90.30 ± 4.99%
[2]; diet with 10% C12 for 12 weeks, egg yolk, gas chromatography, FIG. 3: per 100 g of egg, in mg/100 g egg
  Cholesterol content: 87.00 ± 14.27
[2]; diet with 10% C12 for 12 weeks, mean of 3 locations, with shell membrane
  Shell thickness (mm × 10^−2): 0.38 ± 0.037 mm × 10^−2
[2]; female, Hy-Line Brown, hen (chicken), in vivo, 12 weeks
  content of C12 in a yolk: in a yolk ranged between 0.35 and 2.1 mg.
[3]
  Ash %: 3.40 ± 0.48%
  Crude Fibre %: 4.42 ± 0.38%
  Crude Protein %: 16.20 ± 0.62%
  Dry matter (%): 90.40 ± 1.14%
  Starch %: 44.40 ± 3.51%
